The record followed here is paper PMC8063233 (The Journal of Clinical Endocrinology and Metabolism, 2020).

Structures are written as SMILES.

This data set is described as follows: Plasma pharmacokinetics on day 7 of each treatment period. The format is in vivo, human. Conditions: day 7, verinurad + febuxostat with placebo (n = 36).

Take `CC(C)(Sc1ccncc1-c1ccc(C#N)c2ccccc12)C(=O)O` [Verinurad, verinurad]: the “tmax, Median (min-max)” value was 4.00 (3.00-8.08) h.
